Legend:
[1] = target: T1, hCNT3 (Homo sapiens, UniProt Q9HAS3); details: 100-fold non-radioactive troxacitabine, differentiated HL-60
T1 sequence (Q9HAS3 1-691): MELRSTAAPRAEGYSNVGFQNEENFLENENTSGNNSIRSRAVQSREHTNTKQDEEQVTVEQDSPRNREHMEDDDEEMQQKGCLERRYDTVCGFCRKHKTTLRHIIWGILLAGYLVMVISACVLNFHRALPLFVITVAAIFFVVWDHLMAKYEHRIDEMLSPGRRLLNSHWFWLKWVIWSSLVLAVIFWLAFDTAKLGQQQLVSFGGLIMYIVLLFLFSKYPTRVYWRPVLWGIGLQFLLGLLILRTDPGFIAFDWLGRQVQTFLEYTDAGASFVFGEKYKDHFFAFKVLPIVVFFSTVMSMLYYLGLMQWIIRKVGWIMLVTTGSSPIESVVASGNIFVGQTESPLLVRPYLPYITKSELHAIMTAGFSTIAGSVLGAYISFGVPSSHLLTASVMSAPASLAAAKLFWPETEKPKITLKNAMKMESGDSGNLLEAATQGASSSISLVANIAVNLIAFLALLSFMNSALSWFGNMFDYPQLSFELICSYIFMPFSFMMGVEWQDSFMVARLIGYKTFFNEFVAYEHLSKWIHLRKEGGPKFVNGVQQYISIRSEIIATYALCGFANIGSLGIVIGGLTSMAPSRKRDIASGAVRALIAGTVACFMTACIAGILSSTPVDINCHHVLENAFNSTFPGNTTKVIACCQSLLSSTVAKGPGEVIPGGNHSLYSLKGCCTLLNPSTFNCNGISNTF
Source text: The ability of a high concentration (100-fold) of non-radioactive troxacitabine to inhibit the uptake of ^3H]uridine by hCNT3 was examined in a differentiated HL-60 model system [Ritzel et al. (2000), supra].

[2] = target: T2, hENT1 (Homo sapiens, UniProt Q99808); test: Cellular uptake assay of [3H]nucleoside in DU145 cells, with or without NBMPR or excess non-radioactive troxacitabine; assay type: in vitro ADME; design: The presence of functional es-mediated transport (hENT1) in DU145 cells; endogenous in cells; host or cells: DU145 cells
T2 sequence (Q99808 1-456): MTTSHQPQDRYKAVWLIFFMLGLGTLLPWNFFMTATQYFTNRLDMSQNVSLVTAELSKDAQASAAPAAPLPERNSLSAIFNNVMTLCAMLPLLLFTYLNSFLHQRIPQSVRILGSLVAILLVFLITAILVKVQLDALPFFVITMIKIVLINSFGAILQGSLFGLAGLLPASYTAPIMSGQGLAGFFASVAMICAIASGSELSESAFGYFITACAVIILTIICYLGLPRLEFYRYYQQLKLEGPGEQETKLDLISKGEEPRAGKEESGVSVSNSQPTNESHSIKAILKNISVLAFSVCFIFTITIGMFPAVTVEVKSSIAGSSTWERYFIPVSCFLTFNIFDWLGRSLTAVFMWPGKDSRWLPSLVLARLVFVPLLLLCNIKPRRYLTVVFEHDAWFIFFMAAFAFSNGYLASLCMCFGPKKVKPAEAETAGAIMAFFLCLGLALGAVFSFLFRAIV
Protocol: Cancer Res., 56: 4187-4191.
This experiment is designed to show whether [^3H]L-troxacitabine (10 μM) is taken up by DU145 cells and if the rate of uptake is affected by the addition of high concentrations (1 mM) of non-radioactive troxacitabine.

[3] = target: T3, hENT2 (Homo sapiens, UniProt Q14542)
T3 sequence (Q14542 1-456): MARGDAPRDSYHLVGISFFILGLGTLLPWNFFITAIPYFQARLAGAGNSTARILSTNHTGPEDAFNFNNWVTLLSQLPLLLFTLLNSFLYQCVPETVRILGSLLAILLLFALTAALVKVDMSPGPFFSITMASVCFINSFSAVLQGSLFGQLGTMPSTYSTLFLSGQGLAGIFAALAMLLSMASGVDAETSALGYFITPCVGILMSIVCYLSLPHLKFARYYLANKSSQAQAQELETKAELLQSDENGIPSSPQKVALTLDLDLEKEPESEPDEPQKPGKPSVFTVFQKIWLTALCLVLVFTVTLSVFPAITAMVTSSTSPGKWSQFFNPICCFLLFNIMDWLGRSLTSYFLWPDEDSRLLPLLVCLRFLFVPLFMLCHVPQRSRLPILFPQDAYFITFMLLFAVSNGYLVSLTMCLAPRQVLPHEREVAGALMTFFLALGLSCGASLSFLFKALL
Protocol: B.Uptake of [^3H]troxacitabine either in the absence ( ? ) or presence of 100 nM NBMPR (▴), 100 μM dilazep (▾), 1 mM non-radioactive troxacitabine (♦) or 20 μM dipyridamole (●), using an expanded scale of 0-15 pmol/10^6 cells. Each data point represents the mean (±standard deviation) of three determinations.
Briefly, for adherent cells, uptake assays are conducted at room temperature under zero-trans conditions in either sodium-containing transport buffer (20 mM Tris/HCl, 3 mM K2HPO4, 1 mM MgCl2.6H2O, 2 mM CaCl2, 5 mM glucose and 130 mM NaCl, pH 7.4, 300±15 mOsm) or sodium-free transport buffer with NaCl replaced by N-methyl-D-glucamine. […] After the plates are drained, the cells are lysed with 5% Triton X-100 and mixed with Ecolite scintillation fluid to measure the cell-associated radioactivity (Beckman LS 6500 scintillation counter; Beckman-Coulter Canada, Mississauga, ON). Uptake at the zero time-point is determined by treating cells for 10 min at 4° C. with transport buffer containing 100 μM dilazep, then adding the radioactive nucleoside for 2 s before reaction termination as described above. […] Uptake at the zero time-point is determined by adding cells to cold transport buffer containing radiolabeled permeant and dilazep, and immediate centrifugation. Cell pellets are lysed and cell-associated radioactivity measured. […]

[4] = system: CEM/ARAC8C cells; test: Cellular uptake assay of [3H]nucleoside in nucleoside-transport deficient CEM/ARAC8C cells; assay type: in vitro ADME
Protocol: FIG. 1 Comparative uptake of 30 μM [^3H]-troxacitabine in CEM (Panel A) and CEM/ARAC8C (Panel B) cells. [^3H]-Uridine uptake in either the presence or absence of the hENT1 inhibitor, NBMPR or 5 mM non-radioactive uridine was included for comparison as a control substrate.

effect on [3H]uridine uptake by hCNT3 [1]: no effect on uridine uptake | effect of NBMPR on uptake [2]: not affected | level of [3H] uptake [2]: low levels | effect of non-radioactive troxacitabine (1 mM) on uptake ([2]; 10 μM [3H]L-troxacitabine): no significant effect | rate of uptake ([2]; 10 μM, short (0-30s) and prolonged exposures (0-4 h)): very slow | inhibition of uptake by NBMPR, dilazep, dipyridamole or excess non-radioactive troxacitabine [3]: no substantial inhibition | uptake of [3H]nucleoside over the 6-min time course [4]: taken up to a lesser degree
SMILES: Nc1ccn([C@@H]2CO[C@H](CO)O2)c(=O)n1 [Troxacitabine, troxacitabine]
